Data taken from PMC7717699, “Tuning the activity of iminosugars: novel N-alkylated deoxynojirimycin derivatives as strong BuChE inhibitors” (Journal of Enzyme Inhibition and Medicinal Chemistry, 2020).
Read-outs that look alike come from different tables or passages of the source.

Legend:
Type in all cases: biochemical
[1] = target: T1, β-galactosidase (Aspergillus Oryzae) (Aspergillus oryzae, UniProt Q2UCU3); assay: β-Galactosidase (A. oryzae) inhibition
T1 construct: purchased
T1 sequence (Q2UCU3 19-1005): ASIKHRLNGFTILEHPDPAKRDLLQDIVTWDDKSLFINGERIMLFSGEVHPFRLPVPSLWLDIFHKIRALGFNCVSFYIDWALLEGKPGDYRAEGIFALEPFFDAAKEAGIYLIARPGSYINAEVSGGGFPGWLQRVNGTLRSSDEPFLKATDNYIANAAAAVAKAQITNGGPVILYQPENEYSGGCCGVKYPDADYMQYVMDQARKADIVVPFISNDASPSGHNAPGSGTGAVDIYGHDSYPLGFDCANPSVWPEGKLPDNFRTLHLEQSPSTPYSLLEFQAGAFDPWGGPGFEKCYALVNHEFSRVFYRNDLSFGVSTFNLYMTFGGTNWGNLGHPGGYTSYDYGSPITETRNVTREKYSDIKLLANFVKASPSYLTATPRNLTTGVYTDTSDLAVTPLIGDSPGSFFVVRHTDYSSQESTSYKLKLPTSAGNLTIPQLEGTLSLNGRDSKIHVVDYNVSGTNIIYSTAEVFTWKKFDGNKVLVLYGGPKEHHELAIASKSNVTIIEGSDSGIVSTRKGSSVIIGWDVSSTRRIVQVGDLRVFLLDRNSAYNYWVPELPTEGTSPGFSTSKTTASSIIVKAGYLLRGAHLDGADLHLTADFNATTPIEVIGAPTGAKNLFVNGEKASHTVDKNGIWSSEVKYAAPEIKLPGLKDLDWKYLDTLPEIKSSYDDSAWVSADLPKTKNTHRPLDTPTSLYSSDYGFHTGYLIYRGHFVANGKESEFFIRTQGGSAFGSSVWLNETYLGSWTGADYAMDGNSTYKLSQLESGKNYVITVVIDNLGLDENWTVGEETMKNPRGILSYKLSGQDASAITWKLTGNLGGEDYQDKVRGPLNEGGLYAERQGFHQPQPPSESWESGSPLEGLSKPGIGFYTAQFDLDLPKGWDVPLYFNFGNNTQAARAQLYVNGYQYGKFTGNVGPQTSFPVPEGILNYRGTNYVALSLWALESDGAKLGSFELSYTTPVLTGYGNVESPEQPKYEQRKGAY
Protocol: (§1) For both families of enzymes used herein (glycosidases and cholinesterases), stock solutions of the inhibitors were prepared in DMSO; DMSO content was kept at 5% (V/V) for glycosidases and 1.25% (V/V) for cholinesterases. Enzymes were properly dissolved in water in a concentration in which the rate of the reaction when using [S] = 4 × KM is in the range 0.12–0.15 Abs/min. In both kinds of enzymes, an initial screening at 100 µM inhibitor concentration was performed, using the following substrate concentrations: [S] = 0.25 mM for α-glucosidase (Saccharomyces cerevisiae), 4.0 mM for β-glucosidase (almonds), 0.60 mM for α-galactosidase (green coffee beans), 0.51 mM for β-galactosidase (Escherichia coli), 1.5 mM for β-galactosidase (Aspergillus Oryzae), 0.12 mM for AChE (Electrophorus electricus), 0.11 mM for BuChE (equine serum). […] Each assay was run in duplicate.
(§2) Glycosidase assays were accomplished using the methodology reported by Bols and co-workers[30]. Each set of experiments is prepared in PS cuvettes using 0.1 M phosphate buffer (pH 6.8) and the corresponding o- or p-nitrophenyl glycopyranosides as substrates. Reactions were monitored at 25 °C by following the formation of the corresponding nitrophenolates at 400 nm (glucosidases and α-galactosidase) or 420 nm (β-galactosidases) over a time of 125 s.
(§3) Assessment of the inhibitory capacity against glycosidases was accomplished using the methodology reported by Bols and co-workers[30]. p-Nitrophenyl glycosides (o- for β-galactosidases) were used as model substrates, and the release of the corresponding p-nitrophenolates at pH 6.8 was monitored spectrophotometrically (λmax = 400 or 420 nm for p- or o-nitrophenolates, respectively).

[2] = target: AChE (Electrophorus electricus) (Electrophorus electricus, UniProt O42275); assay: AChE inhibition, Ellman's assay; conditions: for Mode of inhibition AChE: Cornish–Bowden method
Protocol: as §1
(§4) For cholinesterases, minor modifications on Ellman’s assay[31] were performed. The activity was measured in PS cuvettes containing […] (pH 8.0), 0.88 mM DTNB, and substrate (acetyl- and butyryl-thiocholine iodides for AChE and BuChE, respectively), The formation of the chromophore was monitored at 405 nm over a time of 125 s.
(§5) For strong inhibitors, the mode of inhibition was determined using the Cornish–Bowden method, which involves the use of two different plots: 1/v vs. [I] (Dixon plot) and [S]/v vs. [I]. For the calculation of kinetic parameters (KM, Vmax) a nonlinear regression analysis (least squares fit, GraphPad Prism 8.01) was used. Data are expressed as the mean ± SD.
(§6) Derivatives 11 and 12 were tested also against AChE (Electrophorus electricus) and BuChE (equine serum), as recognised models for human cholinesterases due to their close structural resemblance. For that purpose, Ellman’s colorimetric assay was used; this is an indirect test in which acetyl and butyryl thiocholine iodides are used as model substrates, which upon interaction with the enzyme release thiocholine, which in turn reacts with the chromogen reagent 5,5′-dithiobis(2-nitrobenzoic acid (DTNB) to give 2-nitro-5-mercaptobenzoate (at pH 8.0). The monitoring of the latter at 405 nm furnishes the kinetic parameters.

[3] = target: β-glucosidase (almonds); assay: β-Glucosidase inhibition (p-nitrophenyl glycoside substrate); conditions: for IC50: almond enzyme, pH 6.8, 25 °C; for Mode of inhibition β-Glucosidase: Cornish–Bowden method; for Ki: binding to free enzyme, read-out: Kia β-Glucosidase
Protocol: as §1, §2, §5, §3

[4] = target: T2, BuChE (equine serum) (Equus caballus, UniProt P81908); assay: BuChE inhibition, Ellman's assay; conditions: for Mode of inhibition BuChE: Cornish–Bowden method
T2 construct: 0.11 mM for BuChE (equine serum); from tissue; host or cells: equine serum
Protocol: as §1, §4, §5, §6

[5] = target: T3, β-galactosidase (Escherichia coli) (Escherichia coli, UniProt P00722); assay: β-Galactosidase (E. coli) inhibition
T3 construct: purchased
Protocol: as §1, §2, §3

[6] = target: T4, α-galactosidase (green coffee beans) (Coffea arabica, UniProt Q42656); assay: α-Galactosidase inhibition
T4 construct: purchased; host or cells: green coffee beans
Protocol: as §1, with “Enzymes” for “For both families of enzymes used herein (glycosidases and cholinesterases), stock solutions of the inhibitors were prepared in DMSO; DMSO content was kept at 5% (V/V) for glycosidases and 1.25% (V/V) for cholinesterases. Enzymes”
Glycosidase assays were accomplished using the methodology reported by Bols and co-workers[30]. Each set of experiments is prepared in PS cuvettes using 0.1 M phosphate buffer (pH 6.8) and the corresponding o- or p-nitrophenyl glycopyranosides as substrates.
as §3

[7] = target: T5, α-glucosidase (Saccharomyces cerevisiae) (Saccharomyces cerevisiae, UniProt P53341); assay: α-Glucosidase inhibition (p-nitrophenyl glycoside substrate)
T5 construct: purchased
Protocol: as §1, §2
(Dixon plot) and [S]/v vs. [I]. For the calculation of kinetic parameters (KM, Vmax) a nonlinear regression analysis (least squares fit, GraphPad Prism 8.01) was used. Data are expressed as the mean ± SD.
as §3

[8] = Electrophorus electricus, pH 8.0, read-out: IC50 AChE
[9] = equine serum, pH 8.0, read-out: IC50 BuChE
[10] = binding to enzyme-substrate complex, read-out: Kib AChE
[11] = binding to free enzyme, read-out: Kia AChE
[12] = binding to enzyme-substrate complex, read-out: Kib BuChE
[13] = binding to free enzyme, read-out: Kia BuChE

Sequence of AChE (Electrophorus electricus) (O42275 24-633): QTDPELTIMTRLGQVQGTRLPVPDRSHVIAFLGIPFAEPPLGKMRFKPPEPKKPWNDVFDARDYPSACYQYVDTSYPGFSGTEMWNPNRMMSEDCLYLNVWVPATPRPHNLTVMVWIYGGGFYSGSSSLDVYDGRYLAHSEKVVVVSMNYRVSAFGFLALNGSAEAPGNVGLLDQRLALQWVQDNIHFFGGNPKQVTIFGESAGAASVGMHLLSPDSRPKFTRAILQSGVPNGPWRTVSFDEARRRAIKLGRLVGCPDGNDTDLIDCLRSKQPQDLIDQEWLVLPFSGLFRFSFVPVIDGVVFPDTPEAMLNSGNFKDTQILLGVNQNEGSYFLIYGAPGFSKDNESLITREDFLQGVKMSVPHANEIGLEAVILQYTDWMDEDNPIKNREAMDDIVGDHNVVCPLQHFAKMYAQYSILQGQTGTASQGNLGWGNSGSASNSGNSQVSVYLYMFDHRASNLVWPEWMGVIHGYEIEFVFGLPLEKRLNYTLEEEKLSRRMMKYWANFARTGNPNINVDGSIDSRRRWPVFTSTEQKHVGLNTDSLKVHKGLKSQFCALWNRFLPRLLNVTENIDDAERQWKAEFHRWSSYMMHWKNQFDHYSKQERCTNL
T4 sequence (Q42656 16-378): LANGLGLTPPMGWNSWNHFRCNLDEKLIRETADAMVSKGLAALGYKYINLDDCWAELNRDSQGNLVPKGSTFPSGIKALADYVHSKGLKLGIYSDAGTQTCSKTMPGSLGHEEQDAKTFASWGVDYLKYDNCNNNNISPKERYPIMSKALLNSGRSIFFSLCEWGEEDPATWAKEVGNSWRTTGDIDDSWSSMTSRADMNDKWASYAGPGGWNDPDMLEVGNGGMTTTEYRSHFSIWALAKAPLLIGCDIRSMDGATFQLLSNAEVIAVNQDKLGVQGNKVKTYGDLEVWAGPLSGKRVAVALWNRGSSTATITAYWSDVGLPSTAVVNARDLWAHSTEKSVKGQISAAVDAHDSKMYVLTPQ
T2 sequence (P81908 whole entry): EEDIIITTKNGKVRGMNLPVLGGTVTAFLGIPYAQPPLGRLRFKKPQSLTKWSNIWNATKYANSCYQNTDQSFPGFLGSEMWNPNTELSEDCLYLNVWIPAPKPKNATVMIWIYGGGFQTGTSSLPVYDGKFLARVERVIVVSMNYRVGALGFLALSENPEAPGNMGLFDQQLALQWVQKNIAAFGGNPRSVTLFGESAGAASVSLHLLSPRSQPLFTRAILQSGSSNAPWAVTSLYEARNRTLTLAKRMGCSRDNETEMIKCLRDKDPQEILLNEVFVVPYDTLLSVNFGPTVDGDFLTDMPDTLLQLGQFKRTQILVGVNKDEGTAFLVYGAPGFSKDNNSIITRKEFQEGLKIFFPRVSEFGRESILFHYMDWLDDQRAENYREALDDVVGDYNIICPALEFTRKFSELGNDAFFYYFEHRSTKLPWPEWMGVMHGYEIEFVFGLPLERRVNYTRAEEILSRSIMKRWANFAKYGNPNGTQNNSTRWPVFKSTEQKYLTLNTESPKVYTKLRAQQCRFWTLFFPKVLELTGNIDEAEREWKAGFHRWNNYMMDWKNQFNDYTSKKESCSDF
T3 sequence (P00722 2-1024 limits assumed): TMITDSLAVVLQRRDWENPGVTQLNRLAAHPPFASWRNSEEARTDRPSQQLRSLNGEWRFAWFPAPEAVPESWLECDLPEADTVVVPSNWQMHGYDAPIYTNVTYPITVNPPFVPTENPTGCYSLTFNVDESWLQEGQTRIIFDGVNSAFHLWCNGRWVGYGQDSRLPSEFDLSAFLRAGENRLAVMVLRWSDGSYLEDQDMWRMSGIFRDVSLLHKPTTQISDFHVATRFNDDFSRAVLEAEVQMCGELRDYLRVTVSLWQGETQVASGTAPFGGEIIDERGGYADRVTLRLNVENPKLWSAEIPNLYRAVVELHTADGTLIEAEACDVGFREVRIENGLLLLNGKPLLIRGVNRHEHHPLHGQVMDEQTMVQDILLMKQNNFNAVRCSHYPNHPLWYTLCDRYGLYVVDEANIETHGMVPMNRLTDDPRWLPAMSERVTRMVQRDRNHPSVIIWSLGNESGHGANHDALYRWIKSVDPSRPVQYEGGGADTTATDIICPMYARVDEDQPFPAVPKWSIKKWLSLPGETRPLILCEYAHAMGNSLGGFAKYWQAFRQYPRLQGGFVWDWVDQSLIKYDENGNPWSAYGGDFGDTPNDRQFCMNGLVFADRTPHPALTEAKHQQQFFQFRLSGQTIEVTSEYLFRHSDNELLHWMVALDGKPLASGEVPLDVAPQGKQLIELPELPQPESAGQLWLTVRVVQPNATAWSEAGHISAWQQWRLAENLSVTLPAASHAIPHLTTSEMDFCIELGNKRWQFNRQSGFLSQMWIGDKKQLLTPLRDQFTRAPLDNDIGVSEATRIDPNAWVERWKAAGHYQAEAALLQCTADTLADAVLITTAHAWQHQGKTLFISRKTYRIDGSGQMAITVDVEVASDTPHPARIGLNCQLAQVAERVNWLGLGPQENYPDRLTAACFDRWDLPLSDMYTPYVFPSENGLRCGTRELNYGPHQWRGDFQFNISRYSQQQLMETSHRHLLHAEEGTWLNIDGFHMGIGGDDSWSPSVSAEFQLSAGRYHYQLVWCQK
T5 sequence (P53341 whole entry): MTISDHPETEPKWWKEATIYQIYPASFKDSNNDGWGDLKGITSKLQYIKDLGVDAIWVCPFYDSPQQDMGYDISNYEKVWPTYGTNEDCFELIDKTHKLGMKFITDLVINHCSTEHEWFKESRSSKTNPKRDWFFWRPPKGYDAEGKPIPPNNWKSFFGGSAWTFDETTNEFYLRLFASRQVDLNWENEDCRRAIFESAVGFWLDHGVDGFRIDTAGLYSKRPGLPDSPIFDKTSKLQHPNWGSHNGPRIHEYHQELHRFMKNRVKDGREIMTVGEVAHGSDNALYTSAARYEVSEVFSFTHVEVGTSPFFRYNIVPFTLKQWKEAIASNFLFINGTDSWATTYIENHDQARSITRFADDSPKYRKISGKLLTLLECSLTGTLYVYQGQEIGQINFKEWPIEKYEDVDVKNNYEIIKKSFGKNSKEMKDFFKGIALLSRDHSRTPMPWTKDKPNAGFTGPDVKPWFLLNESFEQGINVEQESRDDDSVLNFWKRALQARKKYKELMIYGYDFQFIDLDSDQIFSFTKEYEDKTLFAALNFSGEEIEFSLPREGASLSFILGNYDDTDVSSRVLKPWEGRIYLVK

SMILES	IC50 [3] [µM]	Mode of inhibition BuChE [4]	IC50 [1] [µM]	IC50 [6] [µM]	IC50 [2, 8] [µM]	Mode of inhibition β-Glucosidase [3]	Ki [3] [µM]	IC50 [4, 9] [µM]	IC50 [7] [µM]	IC50 [5] [µM]	Mode of inhibition AChE [2]	Ki [2, 10] [µM]	Ki [2, 11] [µM]	Ki [4, 12] [µM]	Ki [4, 13] [µM]	further results
OC[C@H]1NC[C@H](O)[C@@H](O)[C@@H]1O [Compound 1-DNJ, 1-deoxynojirimycin, reference compound]	[…]	Non-competitive														IC50 ([1]; Asp. Oryzae enzyme, read-out: IC50 β-Galactosidase (Asp. Oryzae)): > 100 µM; IC50 [2]: > 100 µM; IC50 [4]: 10 µM; Ki [4]: 16 ± 3 µM; IC50 ([5]; E. coli enzyme, read-out: IC50 β-Galactosidase (E. coli)): > 100 µM
OC[C@@H]1[C@@H](O)[C@H](O)[C@@H](O)CN1CCCCCCOCCc1ccccc1 [Compound 11a]	4.6		> 100	> 100	> 100	Competitive	6.5	> 100	126	> 100						Ki [7]: 93 µM; Mode of inhibition α-Glucosidase ([7]; Cornish–Bowden method): Competitive
OC[C@@H]1[C@@H](O)[C@H](O)[C@@H](O)CN1CCCCCCOCCc1ccc(O)cc1 [Compound 11b]	12		> 100	> 100	> 100	Competitive	17	> 100	> 100	> 100						
COc1ccc(CCOCCCCCCN2C[C@H](O)[C@@H](O)[C@H](O)[C@H]2CO)cc1 [Compound 11c]	6		> 100	> 100	> 100	Competitive	4.5	> 100	> 100	> 100						
COc1ccc(CCOCCCCCCN2C[C@H](O)[C@@H](O)[C@H](O)[C@H]2CO)cc1OC [Compound 11e]	14	mixed inhibition	> 100	> 100	5.8	Competitive	15	1.9	> 100	> 100	mixed inhibitor	5.2	9.3	4.5	1.4	
COc1cc(CCOCCCCCCN2C[C@H](O)[C@@H](O)[C@H](O)[C@H]2CO)ccc1O [Compound 11f]	8.2	Mixed	> 100	> 100	7.3	Competitive	9.6	1.8	> 100	> 100	Non-competitive	17 ± 5	17 ± 5	5	1.5	
OC[C@@H]1[C@@H](O)[C@H](O)[C@@H](O)CN1CCCCCCOCCc1ccc2c(c1)OCO2 [Compound 11g]	8.4	Non-competitive	> 100	> 100	48	Competitive	9	7.3	> 100	> 100	Mixed	43	56	9.2 ± 1.9	9.2 ± 1.9	
OC[C@@H]1[C@@H](O)[C@H](O)[C@@H](O)CN1CCCCCOCCc1ccccc1 [Compound 12a]	28		> 100	> 100	> 100	Competitive	23 ± 4	> 100	> 100	> 100						
OC[C@@H]1[C@@H](O)[C@H](O)[C@@H](O)CN1CCCCCOCCc1ccc(O)c(O)c1 [Compound 12d]	> 50				> 100			> 100	> 100							
